Measurements published in patent US7595003B2, “On-board water treatment and management process and apparatus” (priority 2004, dated 2009).
Several values for one entry are separate records, joined by “and”; a condition that tells them apart may be missing. Equal entries are not always repeated.

Tests used:
[1] = 20° C.; cited from earlier work
[2] = ozone mass transport into water in acoustic reactor; format: physicochemical; conditions: high acoustic intensity (215 dB) versus low acoustic intensity (205 dB, nominally same as sparger)
Protocol: Adopting the same approach as above, acoustic energy at 205 and 215 dB re 1 μPa at 75 Hz was supplied along with the ozone over the same range of concentration. The acoustic pressure signal of the sonic devices was detected with a hydrophone sensor placed in the reactor. A typical 214 dB signal is shown in the captured trace in FIG. 11. In this series of experiments with a constant 1.5 mg/L concentration, the applied power of the ozone generator was constant; i.e., it was not controlled by the feedback of the dissolved ozone concentration controller. Higher intensity of applied acoustic energy appears to correlate to an increase in ozone mass transport. Utilizing the slopes of the ozone concentration curves, one can calculate an apparent mass transfer coefficient about 40% greater for the high acoustic intensity than for the low acoustic intensity, which was nominally the same as the sparger. This effect has been noted in other applications of ozone mixing, specifically in the oxidative treatment of waste streams. Intensity of this magnitude corresponds to pressure fluctuations of over 8 psi.

[3] = tested on: organisms contained in the ballast water; experiment: batch challenge of unfortified actual ballast water; format: cell-based
Protocol: The basic approach was evaluated with batch challenging of actual ballast water. The water came from the hold of a ship originating from Port Moin, Costa Rica. Ballast water in the ship was sampled in the Port of Philadelphia, and the biota in the samples was characterized by the Bigelow Laboratory for Ocean Sciences. About 80% of the water was taken on or exchanged in the Caribbean, while it is believed that the remaining 20% came from the port of origin. The water had been in the ballast tanks for 21 days, and total ballast capacity of the vessel was 265 cubic meters. The samples were drawn at the 73 cubic meter level.
A challenge was made of unfortified ballast water (without B. subtilis endospores) to assess the killing of organisms contained in the ballast water. For this test, an applied ozone power of 660 watts was used with 0.8 m^3hr^−1. The samples were quenched by adding 10 ml of 1% sodium thiosulfate to the 1 L HDPE collection bottles prior to collecting the samples. A control sample without ozone treatment or quenchant was submitted along with a control containing the quenchant without treatment.
The treatment times for the samples were in one-minute increments from one to five minutes.

[4] = tested on: B. subtilis var. niger endospores ATCC 9372; experiment: batch challenge of B. subtilis endospores in deionized buffered water, plate count; format: cell-based, Bacillus subtilis
[5] = tested on: invertebrates; conditions: typical applications; cited from earlier work
[6] = tested on: Cryptosporidium oocysts; conditions: exposure for 1 minute; cited from earlier work
[7] = tested on: phytoplankton; experiment: flowing system (Phase II): culture tests for the presence of phytoplankton; format: cell-based; parameters: key: Bacterial growth (Bac); Phytoplankton (PHY); conditions: outlet, 125 gpm, UTS Full, ozone Full (1.0 mg/L), 8 psu; samples 3A, 4A
[8] = tested on: bacteria and fungi; experiment: flowing system (Phase II): culture tests for the presence of bacteria and fungi; format: cell-based; parameters: key to growth in TM (test medium) / growth in M (malt broth) / growth in PM (peptonemethylamine broth) / growth in P (peptone broth) / growth in BP: Bacterial growth (Bac); Phytoplankton (PHY)
Protocol: Bigelow Laboratory inoculated 200 μL of sample into various media the day after the samples were collected. The flow rate, water pressure (PSI), temperature, ultrasonic treatment system (UTS) and ozone treatment values were provided by ETI. The hydrogen ion concentration (pH) and salinity values were determined at Bigelow Laboratory. Culture treatments included tests for the presence of bacteria and fungi [peptonemethylamine broth (PM), peptone broth (P), test medium (TM), malt broth (M)] and tests for the presence of phytoplankton [DY-V medium, freshwater (DYV), K medium, oceanic (K), L1+NH4, coastal (L1+NH4), black sea medium, brackish at 16 psu (Blk Sea), L1/24 medium, coastal at 24 psu (L1/24), Prov medium, coastal enriched with soil extract (Prov)]. Bacterial growth (Bac) developed in all of the bacterial test media. Phytoplankton (PHY) grew in all algal growth media (see footnotes for details).
(§1) A summary of data is provided in Table 6, below, from a second batch of harbor water samples that were likewise examined by Bigelow Laboratory the day after they were collected. 200 μL of sample was inoculated into various media. The flow rate, water pressure (PS), temperature, ultrasonic treatment system (UTS) and ozone treatment values were provided by ETI. The hydrogen ion concentration (pH) and salinity values were determined at Bigelow Laboratory. Culture treatments included tests for the presence of bacteria and fungi [peptonemethylamine broth (PM), peptone broth (P), test medium (TM), malt broth (M)] and tests for the presence of phytoplankton [DY-V medium, freshwater (DYV), K medium, oceanic (K), L1+NH4, coastal (L1+NH4), black sea medium, brackish at 16 psu (Blk Sea), L1/24 medium, coastal at 24 psu (L1/24), Prov medium, coastal enriched with soil extract (Prov)]. Bacterial growth (Bac) developed in all of the bacterial test media. Zooflagellates (Zoo) grew in all algal growth media from inlet and strainer samples but none from the outlet samples.
as §1, with “In table 7, below, a” for “A”, “provided” for “provided in Table 6, below,”, “all” for “all of the bacterial”, “media without ozone treatment or growth (Bac) developed” for “media. Zooflagellates (Zoo) grew”, “test” for “algal growth”, “without ozone treatment or with a flow rate over 30 gpm.” for “from inlet and strainer samples but none from the outlet samples.”
as §1, with “In table 8, below, a” for “A”, “provided” for “provided in Table 6, below,”, “(PSI),” for “(PS),”, “Bacterial growth (Bac) developed in all of the bacterial test media. Zooflagellates (Zoo) grew in all algal growth media from inlet and strainer samples but none from the outlet samples.” left out

[9] = ozone power 660 watts, 0.8 m^3hr^−1, treatment 1 to 5 minutes
[10] = outlet, 125 gpm, UTS Full, ozone Full (1.0 mg/L), 8 psu, samples 3A, 4A
[11] = sample 17A: outlet, 10 gpm, UTS Full, ozone 60.0%, 7 psu
[12] = sample 20A: outlet, 30 gpm, UTS Full, ozone 60.0%, 7 psu
[13] = sample 23A: outlet, 50 gpm, UTS Full, ozone 60.0%, 7 psu
[14] = sample 26A: outlet, 88 gpm, UTS Full, ozone 60.0%, 7 psu
[15] = sample 35A: outlet, 50 gpm, UTS Full, ozone Full (1.0 mg/L), 9 psu, one of the triplicate cultures had bacteria
[16] = sample 36A: outlet, 50 gpm, UTS Off, ozone Full (1.0 mg/L), 9 psu
[17] = sample 38A: outlet, 100 gpm, UTS Full, ozone Full (1.0 mg/L), 9 psu, triplicate

SMILES: OBr [Hypobromous acid]
- pKa [1]: 8.8

SMILES: O=[O+][O-] [Ozone, ozone]
- apparent mass transfer coefficient, increase [2]: about 40%
- culture media tests of treated samples ([3]; one-minute treated sample, DYU medium, the only positive of thirty tests): positive growth of a green coccoid alga
- bacteria and zooflagellates in treated samples [3, 9]: positive
- ciliates, dinoflagellates, nematodes in treated samples [3, 9]: no ciliates, dinoflagellates, nematodes, etc., observed
- life in treated samples [3, 9]: nearly devoid of life
- ozone concentration time value required to lower viable B. subtilis endospores by 99.9% ([4]; buffered water (pH 7.8), no additional ozone demand): about 4
- log 3 ozone concentration time value ([4]; ozone only (diffuser), no acoustic energy, deionized water): 4.46 and 4.5
- log of colony forming units per mL ([4]; ozone setpoint 1.5 mg/L, diffuser, no acoustic energy, deionized water, at 5 minutes, about 5 at 0 minutes): about 2
- log 3 ozone concentration time value ([4]; ozone with acoustic energy, intensity increased to 215 dB, 75 Hz, deionized water): 4.0
- contact dosage needed to kill invertebrates [5]: ~0.3 mg/L
- ozone concentration killing Cryptosporidium oocysts [6]: about 1.5 mg/L
- growth in Blk Sea (black sea medium, brackish at 16 psu) [7]: PHY^6
- growth in DYV (DY-V medium, freshwater) [7]: PHY^3
- growth in K (K medium, oceanic) [7]: PHY^4
- growth in L1 + NH4 (coastal) [7]: PHY^5
- growth in L1/24 (coastal at 24 psu) [7]: PHY^7
- growth in Prov (coastal enriched with soil extract) [7]: PHY^8
- bacteria in outlet samples ([8]; full ozone treatment, flow rates of 30 gpm or less, 21-day incubation): killed all bacteria
- growth in M (malt broth) [8, 10]: Bac
- growth in P (peptone broth) [8, 10]: Bac
- growth in PM (peptonemethylamine broth) [8, 10]: Bac
- growth in TM (test medium) [8, 10]: Bac
- growth in M (malt broth) [8, 11]: Bac
- growth in P (peptone broth) [8, 11]: Bac
- growth in PM (peptonemethylamine broth) [8, 11]: Bac
- growth in TM (test medium) [8, 11]: Bac
- growth in M (malt broth) [8, 12]: Bac
- growth in P (peptone broth) [8, 12]: Bac
- growth in PM (peptonemethylamine broth) [8, 12]: Bac
- growth in TM (test medium) [8, 12]: Bac
- growth in M (malt broth) [8, 13]: Bac
- growth in P (peptone broth) [8, 13]: Bac
- growth in PM (peptonemethylamine broth) [8, 13]: Bac
- growth in TM (test medium) [8, 13]: Bac
- growth in M (malt broth) [8, 14]: Bac
- growth in P (peptone broth) [8, 14]: Bac
- growth in PM (peptonemethylamine broth) [8, 14]: Bac
- growth in TM (test medium) [8, 14]: Bac
- growth in M (malt broth) [8, 15]: Bac^3
- growth in PM (peptonemethylamine broth) [8, 15]: Bac^2
- growth in TM (test medium) [8, 15]: Bac^3
- growth in BP [8, 16]: Bac
- growth in M (malt broth) [8, 16]: Bac
- growth in TM (test medium) [8, 16]: Bac
- growth in BP [8, 17]: Bac
- growth in M (malt broth) [8, 17]: Bac
- growth in PM (peptonemethylamine broth) [8, 17]: Bac
- growth in TM (test medium) [8, 17]: Bac
